In ChEMBL document CHEMBL3580619, “The antimalarial drug atovaquone binds to saposin B with comparable affinity to coenzyme Q10” (Medchemcomm, 2014):

How the values were obtained:
[1] = target: T1, Albumin (Homo sapiens, UniProt P02768); assay: Binding affinity to human serum albumin in Ringer buffer and 2 to 7% v/v ethanol at pH 7.4 and 37 degC by CD spectroscopy; format: ADME; settings: isolated protein
[2] = target: T2, Prosaposin (Homo sapiens, UniProt P07602); assay: Binding affinity to human saposin B expressed in Escherichia coli BL21 Gold (DE3) at 150 uM using 15 to 20 uM sapB and 50 mM MES and 10% DMF at pH 5.5 and 25 degC by ITC method; format: ADME; settings: pH 5.5, 150 µM
T2 sequence (P07602 whole entry): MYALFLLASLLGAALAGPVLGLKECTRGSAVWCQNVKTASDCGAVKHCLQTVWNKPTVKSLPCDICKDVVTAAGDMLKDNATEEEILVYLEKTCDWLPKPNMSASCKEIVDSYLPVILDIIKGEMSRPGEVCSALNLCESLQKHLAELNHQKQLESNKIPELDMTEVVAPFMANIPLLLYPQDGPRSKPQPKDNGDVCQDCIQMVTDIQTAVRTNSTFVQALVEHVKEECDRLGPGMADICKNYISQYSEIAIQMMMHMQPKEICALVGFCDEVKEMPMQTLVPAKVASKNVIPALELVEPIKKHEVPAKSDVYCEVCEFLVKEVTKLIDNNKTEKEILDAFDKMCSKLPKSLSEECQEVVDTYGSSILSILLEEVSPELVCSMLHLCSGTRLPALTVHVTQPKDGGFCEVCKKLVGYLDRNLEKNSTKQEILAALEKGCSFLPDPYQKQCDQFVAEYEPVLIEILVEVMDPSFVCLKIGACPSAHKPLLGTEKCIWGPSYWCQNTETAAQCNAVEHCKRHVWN

[3] = target: T2, Prosaposin; assay: Binding affinity to human saposin B expressed in Escherichia coli BL21 Gold (DE3) at 150 um using 20 uM SapB and 20 mM phosphate and 30% DMF at pH 7.4 and 25 degC by ITC method; format: ADME; settings: pH 7.4, 150 µM
[4] = target: T1, Albumin; assay: Binding affinity to human serum albumin at 845 uM using 33.8 uM HSA and 14 mM phosphate and 30% DMF at pH 7.4 and 25 degC by fluorescence spectroscopy; format: ADME; settings: isolated protein, pH 7.4, 845 µM
[5] = target: T1, Albumin; assay: Binding affinity to human serum albumin at 150 uM using 20 uM HSA and 20 mM phosphate and 30% DMF at pH 7.4 and 25 degC by ITC method; format: ADME; settings: isolated protein, pH 7.4, 150 µM
[6] = target: T1, Albumin; assay: Binding affinity to human serum albumin by CD spectroscopy; format: ADME; settings: isolated protein
[7] = target: T1, Albumin; assay: Ratio of Ka for human serum albumin by ITC method to Ka for human serum albumin by CD spectroscopy; format: ADME
[8] = Protein binding in human plasma; format: ADME, cell-free; settings: read-out: PPB
[9] = Inhibition of coenzyme Q10 binding to cytochrome bc1 complex (unknown origin)
[10] = target: T2, Prosaposin; assay: Binding affinity to human saposin B expressed in Escherichia coli BL21 Gold (DE3) at 120 uM using 15 uM sapB and 50 mM MES and 4% THF at pH 5.5 and 25 degC by ITC method; format: ADME; settings: pH 5.5, 120 µM
[11] = target: T2, Prosaposin; assay: Binding affinity to human saposin B expressed in Escherichia coli BL21 Gold (DE3) at 154 uM using 25 to 27 uM sapB and 50 mM MES and 50% DMF at pH 5.5 and 25 degC by ITC method; format: ADME; settings: pH 5.5, 154 µM

T1 sequence (P02768 whole entry): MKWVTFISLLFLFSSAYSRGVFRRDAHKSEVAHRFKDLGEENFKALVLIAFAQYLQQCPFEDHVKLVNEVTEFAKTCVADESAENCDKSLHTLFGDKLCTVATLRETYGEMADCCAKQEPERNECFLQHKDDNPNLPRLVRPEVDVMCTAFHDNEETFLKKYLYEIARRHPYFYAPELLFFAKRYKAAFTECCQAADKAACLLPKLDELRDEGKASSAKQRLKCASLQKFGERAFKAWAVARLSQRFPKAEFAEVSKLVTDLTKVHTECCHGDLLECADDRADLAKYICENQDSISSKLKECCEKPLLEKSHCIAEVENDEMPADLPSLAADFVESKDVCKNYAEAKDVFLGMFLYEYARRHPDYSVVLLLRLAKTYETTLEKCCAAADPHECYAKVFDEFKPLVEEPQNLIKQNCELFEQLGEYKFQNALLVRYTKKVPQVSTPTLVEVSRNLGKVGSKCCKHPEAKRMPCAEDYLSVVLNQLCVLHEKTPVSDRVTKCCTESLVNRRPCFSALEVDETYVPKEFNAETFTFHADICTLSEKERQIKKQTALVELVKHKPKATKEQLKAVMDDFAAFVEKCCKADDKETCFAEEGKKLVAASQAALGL

| K [1] | K [2] | K [3] | Ka [4] | K [5] | Ka [6] | Ratio [7] | fraction unbound [8] | Ki [9] | K [10] | K [11] | SMILES |
| --- | --- | --- | --- | --- | --- | --- | --- | --- | --- | --- | --- |
| 1 ×10⁶ /M | 1.11 ×10⁷ /M | 8.02 ×10⁴ /M | 7.15 ×10⁴ /M | 1.06 ×10⁵ /M | 2 ×10⁶ /M | 10 | < 0.005 | 9 nM |  |  | O=C1C(O)=C([C@H]2CC[C@H](c3ccc(Cl)cc3)CC2)C(=O)c2ccccc21 [ATOVAQUONE] |
|  |  |  |  |  |  |  |  |  | 2.41 ×10⁷ /M | 1.7 ×10⁷ /M | COC1=C(OC)C(=O)C(C/C=C(\C)CC/C=C(\C)CC/C=C(\C)CC/C=C(\C)CC/C=C(\C)CC/C=C(\C)CC/C=C(\C)CC/C=C(\C)CC/C=C(\C)CCC=C(C)C)=C(C)C1=O [UBIDECARENONE] |
